Results as given in the supplement of paper PMC10307832.

Columns and labels:
Test in all cases: relative viability (nuclei count vs DMSO), 5 days (fraction); higher = more cells survive
[1] = compound: CN1C=C(C2=CC=CC=C21)/C=C\3/C4=C(C=CC=N4)NC3=O + N=C(N)NC(=N)NCCc1ccccc1 [Phenformin] (partner 250 µM)
Outline: (§1)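 Lung cancer cell lines were pin-tool dosed in 1536-well plates on the day after seeding, with either a lone drug or a fixed anchor-drug dose plus five library-drug doses (not always all listed) in √10 steps. Nuclei were counted on 4× images after 5 days. Relative viability is the ratio of treated-well to vehicle-well nuclei counts, with each value a median of duplicate plates.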

[2] = compound: CC(=O)Nc1cccc(-n2c(=O)n(C3CC3)c(=O)c3c(Nc4ccc(I)cc4F)n(C)c(=O)c(C)c32)c1 [Trametinib] + COc1cccc2cc(-c3nc([C@H]4CC[C@H](C(=O)O)CC4)n4ncnc(N)c34)[nH]c12 [OSI-027] (partner 0.5 µM)
Outline: as §1

[3] = compound: CC(=O)Nc1cccc(-n2c(=O)n(C3CC3)c(=O)c3c(Nc4ccc(I)cc4F)n(C)c(=O)c(C)c32)c1 [Trametinib] + NC(=O)Nc1cc(-c2cccc(F)c2)sc1C(=O)N[C@H]1CCCNC1 [AZD7762] (partner 0.2 µM)
Outline: as §1

| Cell Line | relative viability ([1]; first compound 0.02 µM) | relative viability ([1]; first compound 0.06325 µM) | relative viability ([1]; first compound 0.2 µM) | relative viability ([1]; first compound 0.6325 µM) | relative viability ([1]; first compound 2 µM) | relative viability ([2]; first compound 0.0025 µM) | relative viability ([2]; first compound 0.007906 µM) | relative viability ([2]; first compound 0.025 µM) | relative viability ([2]; first compound 0.07906 µM) | relative viability ([2]; first compound 0.25 µM) | relative viability ([3]; first compound 0.0025 µM) | relative viability ([3]; first compound 0.007906 µM) | relative viability ([3]; first compound 0.025 µM) | relative viability ([3]; first compound 0.07906 µM) | relative viability ([3]; first compound 0.25 µM) |
| --- | --- | --- | --- | --- | --- | --- | --- | --- | --- | --- | --- | --- | --- | --- | --- |
| NCI-H358 | 0.301 | 0.316 | 0.311 | 0.4 | 0.4 | 0.393 | 0.341 | 0.19 | 0.174 | 0.14 | 0.388 | 0.39 | 0.331 | 0.264 | 0.292 |
| NCI-H441 | 0.795 | 0.754 | 0.804 | 0.88 | 0.772 | 0.543 | 0.56 | 0.392 | 0.446 | 0.196 | 1.15 | 0.972 | 0.734 | 0.658 | 0.618 |
| NCI-H460 | 0.553 | 0.526 | 0.52 | 0.56 | 0.571 | 0.557 | 0.332 | 0.244 | 0.141 | 0.0441 | 0.731 | 0.751 | 0.739 | 0.505 | 0.338 |
| NCI-H522 | 0.579 | 0.672 | 0.703 | 0.58 | 0.644 | 0.592 | 0.653 | 0.595 | 1.57 | 0.587 | 0.875 | 1.01 | 0.703 | 0.69 | 0.88 |
| NCI-H596 | 0.858 | 0.67 | 0.619 | 0.698 | 0.709 | 0.531 | 0.62 | 0.407 | 0.487 | 0.249 | 0.942 | 1.05 | 0.921 | 0.756 | 0.653 |
| NCI-H647 | 0.387 | 0.387 | 0.343 | 0.479 | 0.528 | 0.674 | 0.696 | 0.533 | 0.368 | 0.175 | 0.543 | 0.3 | 0.262 | 0.174 | 0.165 |
| NCI-H650 | 0.474 | 0.481 | – | 0.421 | 0.404 | 0.645 | 0.765 | 0.619 | 0.714 | 0.567 | 1.06 | 1.15 | 1.03 | 0.614 | 0.655 |
| NCI-H727 | 0.414 | 0.448 | 0.442 | 0.586 | 0.528 | 0.426 | 0.39 | 0.266 | 0.274 | 0.317 | 0.356 | 0.386 | 0.315 | 0.279 | 0.355 |
| NCI-H838 | 0.5 | 0.533 | 0.519 | 0.569 | 0.535 | 0.301 | 0.298 | 0.227 | 0.281 | 0.236 | 0.943 | 0.827 | 0.858 | 0.858 | 0.697 |
| NCI-H1355 | 0.439 | 0.388 | 0.398 | 0.358 | 0.434 | 0.344 | 0.327 | 0.241 | 0.263 | 0.242 | 0.747 | 0.706 | 0.539 | 0.599 | 0.591 |
| NCI-H1395 | 0.436 | 0.429 | 0.365 | 0.446 | 0.414 | 0.693 | 0.617 | 0.552 | 0.468 | 0.404 | 0.399 | 0.377 | 0.41 | 0.361 | 0.367 |
| NCI-H1437 | 0.307 | 0.325 | 0.231 | 0.28 | 0.267 | 0.565 | 0.518 | 0.262 | 0.3 | 0.295 | 1.13 | 0.981 | 0.625 | 0.466 | 0.454 |
| NCI-H1651 | 0.377 | 0.344 | 0.305 | 0.327 | 0.397 | 0.54 | 0.702 | 0.443 | 0.603 | 0.469 | 0.454 | 0.427 | 0.352 | 0.439 | 0.186 |
| NCI-H1666 | 0.57 | 0.527 | 0.481 | 0.577 | 0.494 | 0.765 | 0.811 | 0.632 | 0.675 | 0.552 | 0.726 | 0.735 | 0.669 | 0.637 | 0.665 |
| NCI-H1734 | 0.412 | 0.354 | – | 0.376 | 0.373 | 0.591 | 0.517 | 0.404 | 0.492 | 0.278 | 0.476 | 0.451 | – | 0.509 | 0.369 |
| NCI-H1755 | 0.532 | 0.537 | 0.523 | 0.263 | 0.571 | 0.668 | 0.673 | 0.559 | 0.707 | 0.664 | 0.457 | 0.405 | 0.428 | 0.426 | 0.352 |
| NCI-H1792 | 0.442 | 0.245 | – | 0.297 | 0.237 | 0.565 | 0.62 | 0.745 | 0.618 | 0.51 | 0.682 | 0.552 | 0.24 | 0.26 | 0.133 |
| NCI-H1793 | 0.393 | 0.41 | 0.314 | 0.403 | 0.368 | 0.245 | 0.236 | 0.204 | 0.199 | 0.199 | 0.44 | 0.466 | 0.252 | 0.335 | 0.264 |
| NCI-H1915 | 0.331 | 0.361 | 0.365 | 0.347 | 0.36 | 0.538 | 0.314 | 0.293 | 0.21 | 0.159 | 0.702 | 0.715 | 0.405 | 0.365 | 0.218 |
